The source made the active and inactive calls. No cut-off for these calls is given here.
Molecular target: T1, Histidinol dehydrogenase (Brucella suis biovar 1 (strain 1330)) (UniProt Q8G2R2)
T1 sequence (whole entry): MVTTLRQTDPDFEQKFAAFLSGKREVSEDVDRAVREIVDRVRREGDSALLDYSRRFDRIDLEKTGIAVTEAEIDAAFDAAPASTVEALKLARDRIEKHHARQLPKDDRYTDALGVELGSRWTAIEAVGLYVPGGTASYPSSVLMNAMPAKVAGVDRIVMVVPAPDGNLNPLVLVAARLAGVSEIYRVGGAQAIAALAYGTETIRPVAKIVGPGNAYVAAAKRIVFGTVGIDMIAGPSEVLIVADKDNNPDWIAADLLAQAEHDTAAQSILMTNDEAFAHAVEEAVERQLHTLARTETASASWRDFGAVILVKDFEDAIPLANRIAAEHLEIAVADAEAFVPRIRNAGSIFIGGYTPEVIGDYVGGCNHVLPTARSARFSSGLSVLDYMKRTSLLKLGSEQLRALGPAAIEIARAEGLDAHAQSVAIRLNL
Assay: Antibacterial activity against Brucella suis at 10 uM after 8 to 11 days
Format: functional

C[C@H]1O[C@@H](Nc2ccc(S(N)(=O)=O)cc2)[C@@H](O)[C@@H](O)[C@@H]1O
Activity: Active

Reference: ChEMBL document CHEMBL1156335, “Inhibition studies of a beta-carbonic anhydrase from Brucella suis with a series of water soluble glycosyl sulfanilamides” (Bioorg Med Chem Lett, 2010)
